Test results published in patent publication US20230416228A1 (Forkhead Biotherapeutics, Inc., priority 2020, published 2023).

target: T1, human FOXO1 (constitutively active form Thr24Ala, Ser256Ala, Ser319Ala) (Homo sapiens, UniProt Q12778, S256A/S319A/T24A); assay: FOXO1 inhibitor activity assay: cell-based transcriptional (luciferase) reporter assay in HEK293 cells; conditions: HEK293 cells transfected with insulin response element firefly luciferase reporter, FOXO1 and Renilla luciferase; 10-point dose response 50 μM to 2.5 nM; 24 hours
T1 construct: expressed in transfected cells; host or cells: HEK293 cells transfected with pcDNA3.1 plasmid
Experimental: The inhibitory activities of compounds on FOXO1 were determined by a cell-based transcriptional reporter assay. HEK293 cells were plated onto either 384-well poly-D-lysine coated plates (at 7500 cells per well) or 96-well plates (at 20000 cells per well) in low glucose Eagle's Minimum Essential Medium (EMEM) containing 1% fetal bovine serum, and incubated overnight at 37° C. and 5% CO2. […] Duplicate wells were included for each treatment condition. Cells were incubated for 24 hours at 37° C. and 5% CO2. Luciferase activities in each well were measured using Dual-Glog Luciferase Assay System (Promega) according to manufacturer's protocol and an Envision plate reader suitable for luminescence detection. Firefly luciferase activity was divided by Renilla luciferase activity to calculate a ratio for each well. The ratio in wells containing cells transfected with all 3 plasmids listed above and receiving only DMSO without compound addition was set to 100%. The ratio in wells containing cells transfected with plasmid (1), plasmid (3), and pcDNA3.1 containing the open reading frame of red fluorescent protein (instead of human FOXO1) and treated with DMSO was set to 0%. The ratio in each well receiving compound treatment was normalized and expressed as a percentage. Data were fit by 4-parameter logistic regression to determine IC50 and maximal inhibition values. Each compound was tested in a minimum of 2 independent experiments.

T1 sequence (Q12778 whole entry T24A/S256A/S319A): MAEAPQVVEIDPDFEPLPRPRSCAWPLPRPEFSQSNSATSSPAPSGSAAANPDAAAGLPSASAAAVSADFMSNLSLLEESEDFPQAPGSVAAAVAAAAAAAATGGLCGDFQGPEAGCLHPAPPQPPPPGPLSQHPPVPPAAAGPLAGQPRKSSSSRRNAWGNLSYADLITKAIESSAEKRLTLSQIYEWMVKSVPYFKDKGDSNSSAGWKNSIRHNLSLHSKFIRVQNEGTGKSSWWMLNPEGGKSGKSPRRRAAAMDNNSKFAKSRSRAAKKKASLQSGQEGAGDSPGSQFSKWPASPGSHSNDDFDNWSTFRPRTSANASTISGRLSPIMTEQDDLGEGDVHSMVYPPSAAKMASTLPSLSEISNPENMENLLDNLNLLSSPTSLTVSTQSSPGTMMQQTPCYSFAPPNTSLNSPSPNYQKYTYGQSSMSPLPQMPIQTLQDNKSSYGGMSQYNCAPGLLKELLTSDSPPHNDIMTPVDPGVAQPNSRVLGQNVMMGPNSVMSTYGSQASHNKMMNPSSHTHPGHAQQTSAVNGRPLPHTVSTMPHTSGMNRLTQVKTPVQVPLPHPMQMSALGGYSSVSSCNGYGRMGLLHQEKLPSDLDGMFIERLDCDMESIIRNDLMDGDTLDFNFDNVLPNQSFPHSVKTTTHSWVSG

| IC50 [µM] | SMILES |
| --- | --- |
| < 0.1 | CC1CN(c2ccc(C(=O)Nc3cc(-c4nc5ccccc5[nH]4)n(C)n3)cn2)CC(CO)O1 (single isomer, unassigned) [Compound A-292, N-[5-(1H-benzimidazol-2-yl)-1-methyl-pyrazol-3-yl]-6-[2-(hydroxymethyl)-6-methyl-morpholin-4-yl]pyridine-3-carboxamide] |
| 0.1 to 0.3 | CC1CN(c2ccc(C(=O)Nc3cc(-c4nc5ccccc5[nH]4)n(C)n3)cn2)CC(CO)O1 (single isomer, unassigned) [Compound A-293, N-[5-(1H-benzimidazol-2-yl)-1-methyl-pyrazol-3-yl]-6-[2-(hydroxymethyl)-6-methyl-morpholin-4-yl]pyridine-3-carboxamide] |
| < 0.1 | CC1CN(c2ccc(C(=O)Nc3cc(-c4nc5ccccc5[nH]4)n(C)n3)cn2)CC(CO)O1 (single isomer, unassigned) [Compound A-294, N-[5-(1H-benzimidazol-2-yl)-1-methyl-pyrazol-3-yl]-6-[2-(hydroxymethyl)-6-methyl-morpholin-4-yl]pyridine-3-carboxamide] |
| < 0.1 | CC1CN(c2ccc(C(=O)Nc3cc(-c4nc5ccccc5[nH]4)n(C)n3)cn2)CC(CO)O1 (single isomer, unassigned) [Compound A-295, N-[5-(1H-benzimidazol-2-yl)-1-methyl-pyrazol-3-yl]-6-[2-(hydroxymethyl)-6-methyl-morpholin-4-yl]pyridine-3-carboxamide] |
| 0.3 to 1 | Cn1nc(NC(=O)c2ccc(N3CCC(O)C3)nc2)cc1-c1nc2ccccc2[nH]1 (stereo in doubt) [Compound A-227, N-[5-(1H-benzimidazol-2-yl)-1-methyl-pyrazol-3-yl]-6-[(3R)-3-hydroxy-pyrrolidin-1-yl]pyridine-3-carboxamide] |
| < 0.1 | CC(=O)N1CCN(c2ccc(C(=O)Nc3cc(-c4nc5ccccc5[nH]4)n(C)n3)cn2)CC1 [A-231, 6-(4-acetylpiperazin-1-yl)-N-[5-(1H-benzimidazol-2-yl)-1-methyl-pyrazol-3-yl]pyridine-3-carboxamide] |
| < 0.1 | CC(O)CN1CCN(c2ccc(C(=O)Nc3cc(-c4nc5ccccc5[nH]4)n(C)n3)cc2)CC1 (stereo not shown) [A-257, N-[5-(1H-benzimidazol-2-yl)-1-methyl-pyrazol-3-yl]-4-[4-(2-hydroxypropyl)piperazin-1-yl]benzamide] |
| > 1 | COc1ccc(C(=O)Nc2cc(C(=O)NC3COC3)[nH]n2)cc1Cl [Compound A-16, 3-[(3-chloro-4-methoxy-benzoyl)amino]-N-(oxetan-3-yl)-1H-pyrazole-5-carboxamide] |
| < 0.1 | CN1CCN(c2ccc(C(=O)Nc3cc(-c4nc5ccccc5[nH]4)[nH]n3)cn2)CC1 [Compound A-21, N-[5-(1H-benzimidazol-2-yl)-1H-pyrazol-3-yl]-6-(4-methyl-piperazin-1-yl)pyridine-3-carboxamide] |
| < 0.1 | COCCOc1ccc(C(=O)Nc2cc(-c3nc4ccccc4[nH]3)[nH]n2)cc1Cl [Compound A-29, N-[5-(1H-benzimidazol-2-yl)-1H-pyrazol-3-yl]-3-chloro-4-(2-methoxyethoxy)benzamide] |
| > 1 | COc1ccc(C(=O)Nc2cc(-c3nc4ccccc4[nH]3)no2)cc1Cl [Compound A-30, N-[3-(1H-benzimidazol-2-yl)isoxazol-5-yl]-3-chloro-4-methoxy-benzamide] |
| 0.1 to 0.3 | O=C(Nc1cc(-c2nc3ccccc3[nH]2)[nH]n1)c1ccc(OCCN2CCOCC2)c(Cl)c1 [Compound A-33, N-[5-(1H-benzimidazol-2-yl)-1H-pyrazol-3-yl]-3-chloro-4-(2-morpholinoethoxy)benzamide] |
| < 0.1 | O=C(Nc1cc(-c2nc3ccccc3[nH]2)[nH]n1)c1ccc(N2CCC(O)CC2)cc1 [Compound A-36, N-[5-(1H-benzimidazol-2-yl)-1H-pyrazol-3-yl]-4-(4-hydroxy-1-piperidyl)-benzamide] |
| < 0.1 | COCCNc1ccc(C(=O)Nc2cc(-c3nc4ccccc4[nH]3)[nH]n2)cc1Cl [Compound A-39, N-[5-(1H-benzimidazol-2-yl)-1H-pyrazol-3-yl]-3-chloro-4-(2-methoxyethylamino)benzamide] |
| < 0.1 | O=C(Nc1cc(-c2nc3ccccc3[nH]2)[nH]n1)c1ccc(N2CC[C@@H](O)C2)cc1 [Compound A-40, N-[5-(1H-benzimidazol-2-yl)-1H-pyrazol-3-yl]-4-[(3R)-3-hydroxypyrrolidin-1-yl]benzamide] |
| < 0.1 | O=C(Nc1cc(-c2nc3ccccc3[nH]2)[nH]n1)c1ccc(N2CCOCC2)nc1 [Compound A-41, N-[5-(1H-benzimidazol-2-yl)-1H-pyrazol-3-yl]-6-morpholino-pyridine-3-carboxamide] |

| IC50 [µM] | SMILES |
| --- | --- |
| 0.1 to 0.3 | O=C(Nc1cc(-c2nc3ccccc3[nH]2)[nH]n1)c1ccc(N2CCC(O)CC2)nc1 [Compound A-42, N-[5-(1H-benzimidazol-2-yl)-1H-pyrazol-3-yl]-6-(4-hydroxy-1-piperidyl)pyridine-3-carboxamide] |
| < 0.1 | O=C(Nc1cc(-c2nc3ccccc3[nH]2)[nH]n1)c1ccc(N2CC[C@H](O)C2)cc1 [Compound A-43, N-[5-(1H-benzimidazol-2-yl)-1H-pyrazol-3-yl]-4-[(3S)-3-hydroxy-pyrrolidin-1-yl]benzamide] |
| < 0.1 | O=C(Nc1cc(-c2nc3ccccc3[nH]2)[nH]n1)c1ccc(N2CCC3(CCCO3)CC2)nc1 [Compound A-44, N-[5-(1H-benzimidazol-2-yl)-1H-pyrazol-3-yl]-6-(1-oxa-8-azaspiro[4.5]decan-8-yl)pyridine-3-carboxamide] |
| > 1 | O=C(Nc1cc(-c2nc3ccccc3[nH]2)[nH]n1)c1ccc(N2CC3(COC3)C2)nc1 [Compound A-45, N-[5-(1H-benzimidazol-2-yl)-1H-pyrazol-3-yl]-6-(2-oxa-6-azaspiro[3.3]heptan-6-yl)pyridine-3-carboxamide] |
| < 0.1 | CN(C)C1CCN(c2ccc(C(=O)Nc3cc(-c4nc5ccccc5[nH]4)[nH]n3)cn2)CC1 [Compound A-46, N-[5-(1H-benzimidazol-2-yl)-1H-pyrazol-3-yl]-6-[4-(dimethylamino)-1-piperidyl]pyridine-3-carboxamide] |
| < 0.1 | CC(C)(O)C1CCN(c2ccc(C(=O)Nc3cc(-c4nc5ccccc5[nH]4)[nH]n3)cn2)CC1 [Compound A-47, N-[5-(1H-benzimidazol-2-yl)-1H-pyrazol-3-yl]-6-[4-(1-hydroxy-1-methyl-ethyl)-1-piperidyl]pyridine-3-carboxamide] |
| > 1 | O=C(Nc1cc(-c2nc3ccccc3[nH]2)[nH]n1)c1ccc(N2CCC[C@H]2C(=O)O)nc1 [Compound A-48, (2S)-1-[5-[[5-(1H-benzimidazol-2-yl)-1H-pyrazol-3-yl]carbamoyl]-2-pyridyl]pyrrolidine-2-carboxylic acid] |
| 0.3 to 1 | O=C(Nc1cc(-c2nc3ccccc3[nH]2)[nH]n1)c1ccc(N2CCS(=O)(=O)CC2)nc1 [Compound A-49, N-[5-(1H-benzimidazol-2-yl)-1H-pyrazol-3-yl]-6-(1,1-dioxo-1,4-thiazinan-4-yl)pyridine-3-carboxamide] |
| < 0.1 | O=C(Nc1cc(-c2nc3ccccc3[nH]2)[nH]n1)c1ccc(OCCO)c(Cl)c1 [Compound A-50, N-[5-(1H-benzimidazol-2-yl)-1H-pyrazol-3-yl]-3-chloro-4-(2-hydroxy-ethoxy)benzamide] |
| > 1 | O=C(Nc1cc(-c2nc3ccccc3[nH]2)[nH]n1)c1ccc(N2CCC(C(=O)O)CC2)nc1 [Compound A-51, ammonium 1-[5-[[5-(1H-benzimidazol-2-yl)-1H-pyrazol-3-yl]carbamoyl]-2-pyridyl]piperidine-4-carboxylate] |
| 0.1 to 0.3 | O=C(Nc1cc(-c2nc3ccccc3[nH]2)[nH]n1)c1ccc(N2CCC[C@H]2CO)nc1 [Compound A-52, N-[5-(1H-benzimidazol-2-yl)-1H-pyrazol-3-yl]-6-[(2S)-2-(hydroxymethyl)-pyrrolidin-1-yl]pyridine-3-carboxamide] |
| < 0.1 | COCCCOc1ccc(C(=O)Nc2cc(-c3nc4ccccc4[nH]3)[nH]n2)cc1Cl [Compound A-53, N-[5-(1H-benzimidazol-2-yl)-1H-pyrazol-3-yl]-3-chloro-4-(3-methoxy-propoxy)benzamide] |
| 0.3 to 1 | O=C(Nc1cc(-c2nc3ccccc3[nH]2)[nH]n1)c1ccc(N2CC[C@H](O)C2)nc1 [Compound A-54, N-[5-(1H-benzimidazol-2-yl)-1H-pyrazol-3-yl]-6-[(3S)-3-hydroxy-pyrrolidin-1-yl]pyridine-3-carboxamide] |
| 0.3 to 1 | O=C(Nc1cc(-c2nc3ccccc3[nH]2)[nH]n1)c1ccc(N2CC[C@@H](O)C2)nc1 [Compound A-55, N-[5-(1H-benzimidazol-2-yl)-1H-pyrazol-3-yl]-6-[(3R)-3-hydroxypyrrolidin-1-yl]pyridine-3-carboxamide] |
| > 1 | CCOC(=O)[C@@H]1CCCN1c1ccc(C(=O)Nc2cc(-c3nc4ccccc4[nH]3)[nH]n2)cn1 [Compound A-56, ethyl (2S)-1-[5-[[5-(1H-benzimidazol-2-yl)-1H-pyrazol-3-yl]carbamoyl]-2-pyridyl]pyrrolidine-2-carboxylate] |
